Assay results published in ChEMBL document CHEMBL4351015, “Design, synthesis and biological evaluation of 3-(imidazo[1,2-a]pyrazin-3-ylethynyl)-2-methylbenzamides as potent and selective pan-tropomyosin receptor kinase (TRK) inhibitors” (Eur J Med Chem, 2019).

Key:
[1] = target: High affinity nerve growth factor receptor (Homo sapiens, UniProt P04629); test: Inhibition of recombinant human His-tagged TrkA catalytic domain (441 to 796 residues) expressed in baculovirus expression system using tyr 01 as substrate incubated for 1 hr by Z'-Lyte assay
Sequence of High affinity nerve growth factor receptor (P04629 whole entry, the tested form may be a part): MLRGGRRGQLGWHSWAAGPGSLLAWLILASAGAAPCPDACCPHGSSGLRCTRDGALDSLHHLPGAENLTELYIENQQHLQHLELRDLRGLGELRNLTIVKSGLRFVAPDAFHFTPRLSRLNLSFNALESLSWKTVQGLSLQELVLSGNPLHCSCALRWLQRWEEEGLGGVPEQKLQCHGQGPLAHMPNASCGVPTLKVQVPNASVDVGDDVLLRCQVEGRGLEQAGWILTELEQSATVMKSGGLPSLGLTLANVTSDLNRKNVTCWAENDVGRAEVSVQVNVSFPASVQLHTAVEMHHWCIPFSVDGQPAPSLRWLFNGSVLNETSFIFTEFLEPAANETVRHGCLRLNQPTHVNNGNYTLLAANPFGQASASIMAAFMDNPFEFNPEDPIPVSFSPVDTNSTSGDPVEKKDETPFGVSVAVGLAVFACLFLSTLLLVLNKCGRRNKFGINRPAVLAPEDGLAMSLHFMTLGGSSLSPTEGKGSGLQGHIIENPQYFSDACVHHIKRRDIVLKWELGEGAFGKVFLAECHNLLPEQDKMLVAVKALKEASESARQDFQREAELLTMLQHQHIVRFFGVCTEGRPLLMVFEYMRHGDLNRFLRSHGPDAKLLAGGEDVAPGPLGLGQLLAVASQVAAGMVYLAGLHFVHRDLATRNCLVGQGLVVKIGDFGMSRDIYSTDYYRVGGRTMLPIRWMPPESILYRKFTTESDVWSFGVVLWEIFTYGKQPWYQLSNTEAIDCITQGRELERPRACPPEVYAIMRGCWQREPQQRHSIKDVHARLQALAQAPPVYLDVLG

[2] = target: BDNF/NT-3 growth factors receptor (Homo sapiens, UniProt Q16620); test: Inhibition of recombinant human His-tagged TrkB catalytic domain (526 to 838 residues) expressed in baculovirus expression system using tyr 01 as substrate incubated for 1 hr by Z'-Lyte assay
Sequence of BDNF/NT-3 growth factors receptor (Q16620 whole entry, the tested form may be a part): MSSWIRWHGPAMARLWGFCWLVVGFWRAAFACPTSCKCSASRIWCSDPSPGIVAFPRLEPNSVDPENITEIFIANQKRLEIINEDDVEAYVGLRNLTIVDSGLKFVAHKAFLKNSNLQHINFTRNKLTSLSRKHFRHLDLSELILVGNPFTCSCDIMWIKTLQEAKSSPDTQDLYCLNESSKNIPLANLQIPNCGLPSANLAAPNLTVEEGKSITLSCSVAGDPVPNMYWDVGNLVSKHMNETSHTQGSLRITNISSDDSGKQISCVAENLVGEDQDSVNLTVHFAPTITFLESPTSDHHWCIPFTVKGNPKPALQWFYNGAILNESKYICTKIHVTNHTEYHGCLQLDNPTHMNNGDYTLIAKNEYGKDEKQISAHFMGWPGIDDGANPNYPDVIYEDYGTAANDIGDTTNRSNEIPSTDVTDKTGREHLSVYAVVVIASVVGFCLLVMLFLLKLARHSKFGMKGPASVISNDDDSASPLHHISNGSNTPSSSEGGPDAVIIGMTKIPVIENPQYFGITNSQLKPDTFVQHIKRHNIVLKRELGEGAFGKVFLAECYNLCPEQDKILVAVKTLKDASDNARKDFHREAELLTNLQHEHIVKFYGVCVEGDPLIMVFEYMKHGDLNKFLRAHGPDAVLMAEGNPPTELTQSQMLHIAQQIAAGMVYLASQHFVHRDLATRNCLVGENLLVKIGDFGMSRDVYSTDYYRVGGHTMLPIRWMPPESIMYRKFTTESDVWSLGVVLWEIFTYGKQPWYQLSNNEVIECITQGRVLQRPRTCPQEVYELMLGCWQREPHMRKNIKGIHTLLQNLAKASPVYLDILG

[3] = target: Tyrosine-protein kinase ABL1 (Homo sapiens, UniProt P00519); test: Inhibition of recombinant full length human His-tagged ABL1 expressed in baculovirus infected insect cells using tyr 02 as substrate incubated for 2 hr by Z'-Lyte assay
Sequence of Tyrosine-protein kinase ABL1 (P00519 whole entry, the tested form may be a part): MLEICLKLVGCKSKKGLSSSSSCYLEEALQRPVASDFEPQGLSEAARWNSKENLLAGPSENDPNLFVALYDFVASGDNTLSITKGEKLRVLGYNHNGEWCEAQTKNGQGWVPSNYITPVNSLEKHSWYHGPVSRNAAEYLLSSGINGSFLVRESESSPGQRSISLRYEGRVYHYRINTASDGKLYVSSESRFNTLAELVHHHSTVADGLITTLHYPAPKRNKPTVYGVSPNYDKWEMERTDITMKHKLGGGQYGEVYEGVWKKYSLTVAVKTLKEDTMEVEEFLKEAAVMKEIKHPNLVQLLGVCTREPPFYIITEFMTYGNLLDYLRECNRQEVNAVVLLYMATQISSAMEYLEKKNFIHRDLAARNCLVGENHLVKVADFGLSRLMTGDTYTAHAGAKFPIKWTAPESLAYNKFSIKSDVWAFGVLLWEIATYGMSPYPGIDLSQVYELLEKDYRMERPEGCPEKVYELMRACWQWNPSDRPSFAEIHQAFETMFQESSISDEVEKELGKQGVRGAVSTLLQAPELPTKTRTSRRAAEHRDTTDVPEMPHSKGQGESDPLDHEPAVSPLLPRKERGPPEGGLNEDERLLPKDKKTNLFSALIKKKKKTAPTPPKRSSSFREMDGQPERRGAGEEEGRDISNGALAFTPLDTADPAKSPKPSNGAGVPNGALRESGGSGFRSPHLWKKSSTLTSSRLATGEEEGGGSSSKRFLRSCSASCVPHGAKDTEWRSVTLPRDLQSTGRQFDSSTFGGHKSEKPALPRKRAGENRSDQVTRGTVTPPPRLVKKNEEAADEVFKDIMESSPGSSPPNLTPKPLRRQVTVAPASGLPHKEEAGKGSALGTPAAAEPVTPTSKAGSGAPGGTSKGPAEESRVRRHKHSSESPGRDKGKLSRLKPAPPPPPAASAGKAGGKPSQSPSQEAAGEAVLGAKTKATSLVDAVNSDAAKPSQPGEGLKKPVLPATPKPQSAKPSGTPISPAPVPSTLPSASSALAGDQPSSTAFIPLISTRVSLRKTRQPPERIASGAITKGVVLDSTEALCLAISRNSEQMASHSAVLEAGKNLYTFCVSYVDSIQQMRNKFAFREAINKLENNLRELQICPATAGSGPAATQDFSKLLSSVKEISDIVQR

[4] = target: NT-3 growth factor receptor (Homo sapiens, UniProt Q16288); test: Inhibition of recombinant human His-tagged TrkC cytoplasmic domain (510 to 825 residues) expressed in baculovirus using tyr 01 as substrate incubated for 1 hr by Z'-Lyte assay
Sequence of NT-3 growth factor receptor (Q16288 whole entry, the tested form may be a part): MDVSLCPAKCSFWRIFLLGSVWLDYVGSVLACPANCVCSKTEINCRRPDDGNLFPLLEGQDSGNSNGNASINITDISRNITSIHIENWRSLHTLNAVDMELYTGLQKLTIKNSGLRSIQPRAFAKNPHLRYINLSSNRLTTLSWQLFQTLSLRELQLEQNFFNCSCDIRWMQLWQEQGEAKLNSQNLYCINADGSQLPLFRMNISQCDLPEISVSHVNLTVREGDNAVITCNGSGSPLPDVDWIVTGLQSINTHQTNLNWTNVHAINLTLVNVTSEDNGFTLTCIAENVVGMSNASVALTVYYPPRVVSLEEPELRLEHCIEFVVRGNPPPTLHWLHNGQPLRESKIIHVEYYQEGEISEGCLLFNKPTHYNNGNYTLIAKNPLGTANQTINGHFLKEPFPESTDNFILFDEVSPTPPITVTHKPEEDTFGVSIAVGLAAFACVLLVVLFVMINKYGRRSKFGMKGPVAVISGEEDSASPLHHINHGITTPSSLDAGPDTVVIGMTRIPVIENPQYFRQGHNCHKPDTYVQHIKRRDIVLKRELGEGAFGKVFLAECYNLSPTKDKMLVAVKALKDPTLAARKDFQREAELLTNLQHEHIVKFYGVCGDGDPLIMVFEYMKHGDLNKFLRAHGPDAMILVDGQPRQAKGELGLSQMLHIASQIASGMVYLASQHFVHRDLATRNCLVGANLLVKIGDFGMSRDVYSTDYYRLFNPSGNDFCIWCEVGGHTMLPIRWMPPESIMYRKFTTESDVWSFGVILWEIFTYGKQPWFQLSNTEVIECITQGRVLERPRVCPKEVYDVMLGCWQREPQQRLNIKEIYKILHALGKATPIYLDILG

SMILES	IC50 [1] [nM]	IC50 [2] [nM]	IC50 [3] [nM]	IC50 [4] [nM]
Cc1cc(CN2CCN(C)CC2)cc(NC(=O)c2cccc(C#Cc3cnc4cnc(-c5ccc(N)cc5)cn34)c2C)c1	17.4	41.3	> 1000	
Cc1c(C#Cc2cnc3cnc(-c4ccc(N)cc4)cn23)cccc1C(=O)Nc1cc(CN2CCN(C)CC2)cc(C(F)(F)F)c1	7.75	13.1	> 1000	
Cc1ccc(C(=O)Nc2cc(CN3CCN(C)CC3)cc(C(F)(F)F)c2)cc1C#Cc1cnc2cnccn12	8.24	9.37		
CCc1cc(CN2CCN(C)CC2)cc(NC(=O)c2cccc(C#Cc3cnc4cnc(-c5ccc(N)cc5)cn34)c2C)c1	3.56	9.3	> 1000	

Next, values leading:

IC50 [1] [nM]	IC50 [2] [nM]	IC50 [3] [nM]	IC50 [4] [nM]	SMILES
28.8	43.5	> 1000		Cc1c(C#Cc2cnc3cnc(-c4ccncc4)cn23)cccc1C(=O)Nc1cc(CN2CCN(C)CC2)cc(C(F)(F)F)c1
7.34	24.2	> 1000		Cc1c(C#Cc2cnc3cnc(-c4ccc(N)cc4)cn23)cccc1C(=O)Nc1cc(CN2CCN(C)CC2)cc(-c2ccccc2)c1
132	178	449		Cc1cc(C#Cc2cnc3cnccn23)cc(C(=O)Nc2cc(CN3CCN(C)CC3)cc(C(F)(F)F)c2)c1
> 1000	> 1000	> 1000	> 1000	CCCc1c(C#Cc2cnc3cnccn23)cccc1C(=O)Nc1cc(CN2CCN(C)CC2)cc(C(F)(F)F)c1
6.4	15.6	> 1000		Cc1c(C#Cc2cnc3cnc(-c4ccc(N)cc4)cn23)cccc1C(=O)Nc1cc(CN2CCN(C)CC2)cc(C(C)(C)C)c1
